According to the NIST ThermoML archive (doi:10.1021/je060429r):
Numbers after ± are expanded uncertainties.

Conditions: Transpiration method

Oc1c(Cl)cccc1Cl [2,6-dichlorophenol]
vapor or sublimation pressure (298.5 K, Crystal): 0.0073 ± 0.0004 kPa
vapor or sublimation pressure (301.6 K, Crystal): 0.01 ± 0.0005 kPa
vapor or sublimation pressure (304.6 K, Crystal): 0.0137 ± 0.0007 kPa
vapor or sublimation pressure (307.4 K, Crystal): 0.0183 ± 0.0009 kPa
vapor or sublimation pressure (310.4 K, Crystal): 0.0245 ± 0.0012 kPa
vapor or sublimation pressure (313.4 K, Crystal): 0.0331 ± 0.0017 kPa
vapor or sublimation pressure (316.4 K, Crystal): 0.0437 ± 0.0022 kPa
vapor or sublimation pressure (319.4 K, Crystal): 0.0591 ± 0.003 kPa
vapor or sublimation pressure (322.4 K, Crystal): 0.0774 ± 0.0038 kPa
vapor or sublimation pressure (325.4 K, Crystal): 0.1006 ± 0.005 kPa
vapor or sublimation pressure (328.4 K, Crystal): 0.1312 ± 0.0065 kPa
vapor or sublimation pressure (331.3 K, Crystal): 0.1685 ± 0.0082 kPa
vapor or sublimation pressure (341.2 K, Liquid): 0.3444 ± 0.017 kPa
vapor or sublimation pressure (344.7 K, Liquid): 0.4173 ± 0.02 kPa
vapor or sublimation pressure (347.3 K, Liquid): 0.4838 ± 0.023 kPa
vapor or sublimation pressure (350.3 K, Liquid): 0.5727 ± 0.027 kPa
vapor or sublimation pressure (353.3 K, Liquid): 0.6745 ± 0.032 kPa
vapor or sublimation pressure (356.3 K, Liquid): 0.7745 ± 0.037 kPa
vapor or sublimation pressure (360.3 K, Liquid): 0.9734 ± 0.046 kPa
vapor or sublimation pressure (363.3 K, Liquid): 1.143 ± 0.054 kPa
vapor or sublimation pressure (366.3 K, Liquid): 1.315 ± 0.062 kPa
vapor or sublimation pressure (371.4 K, Liquid): 1.664 ± 0.078 kPa

Oc1ccccc1Cl [2-chlorophenol]
vapor or sublimation pressure (288.4 K, Liquid): 0.0863 ± 0.0043 kPa
vapor or sublimation pressure (291.3 K, Liquid): 0.1102 ± 0.0054 kPa
vapor or sublimation pressure (294.3 K, Liquid): 0.1378 ± 0.0067 kPa
vapor or sublimation pressure (297.3 K, Liquid): 0.1681 ± 0.0081 kPa
vapor or sublimation pressure (300.3 K, Liquid): 0.2059 ± 0.01 kPa
vapor or sublimation pressure (303.3 K, Liquid): 0.2559 ± 0.012 kPa
vapor or sublimation pressure (306.2 K, Liquid): 0.3083 ± 0.015 kPa
vapor or sublimation pressure (309.2 K, Liquid): 0.3763 ± 0.018 kPa
vapor or sublimation pressure (312.2 K, Liquid): 0.4633 ± 0.022 kPa
vapor or sublimation pressure (315.2 K, Liquid): 0.5579 ± 0.027 kPa
vapor or sublimation pressure (318.2 K, Liquid): 0.6649 ± 0.032 kPa
vapor or sublimation pressure (321.2 K, Liquid): 0.7992 ± 0.038 kPa

Oc1ccc(Cl)c(Cl)c1 [3,4-dichlorophenol]
vapor or sublimation pressure (291.4 K, Crystal): 0.00027 ± 2e-05 kPa
vapor or sublimation pressure (294.3 K, Crystal): 0.0004 ± 2e-05 kPa
vapor or sublimation pressure (300.3 K, Crystal): 0.00086 ± 4e-05 kPa
vapor or sublimation pressure (303.5 K, Crystal): 0.00121 ± 6e-05 kPa
vapor or sublimation pressure (306.7 K, Crystal): 0.00177 ± 9e-05 kPa
vapor or sublimation pressure (309.5 K, Crystal): 0.00247 ± 0.00013 kPa
vapor or sublimation pressure (314.3 K, Crystal): 0.00423 ± 0.00021 kPa
vapor or sublimation pressure (317.2 K, Crystal): 0.00587 ± 0.0003 kPa
vapor or sublimation pressure (320.4 K, Crystal): 0.00806 ± 0.00041 kPa
vapor or sublimation pressure (323.3 K, Crystal): 0.01069 ± 0.00055 kPa
vapor or sublimation pressure (326.3 K, Crystal): 0.01474 ± 0.00075 kPa
vapor or sublimation pressure (329.3 K, Crystal): 0.01992 ± 0.001 kPa
vapor or sublimation pressure (332.3 K, Crystal): 0.02618 ± 0.0013 kPa
vapor or sublimation pressure (335.3 K, Crystal): 0.03423 ± 0.0017 kPa
vapor or sublimation pressure (337.3 K, Crystal): 0.04096 ± 0.002 kPa
vapor or sublimation pressure (341.3 K, Liquid): 0.057 ± 0.0028 kPa
vapor or sublimation pressure (344.3 K, Liquid): 0.0703 ± 0.0034 kPa
vapor or sublimation pressure (347.2 K, Liquid): 0.0854 ± 0.0041 kPa
vapor or sublimation pressure (350.3 K, Liquid): 0.1055 ± 0.0051 kPa
vapor or sublimation pressure (353.2 K, Liquid): 0.127 ± 0.0061 kPa
vapor or sublimation pressure (356.3 K, Liquid): 0.1544 ± 0.0074 kPa
vapor or sublimation pressure (359.2 K, Liquid): 0.1858 ± 0.0089 kPa
vapor or sublimation pressure (362.2 K, Liquid): 0.223 ± 0.011 kPa
vapor or sublimation pressure (365.4 K, Liquid): 0.2696 ± 0.013 kPa
vapor or sublimation pressure (368.4 K, Liquid): 0.3217 ± 0.015 kPa

Oc1cccc(Cl)c1 [3-chlorophenol]
vapor or sublimation pressure (275.3 K, Crystal): 0.00082 ± 4e-05 kPa
vapor or sublimation pressure (276.6 K, Crystal): 0.00095 ± 5e-05 kPa
vapor or sublimation pressure (278.3 K, Crystal): 0.00115 ± 6e-05 kPa
vapor or sublimation pressure (280.3 K, Crystal): 0.00149 ± 8e-05 kPa
vapor or sublimation pressure (283.2 K, Crystal): 0.00212 ± 0.00011 kPa
vapor or sublimation pressure (285.2 K, Crystal): 0.00262 ± 0.00014 kPa
vapor or sublimation pressure (288.3 K, Crystal): 0.00366 ± 0.00019 kPa
vapor or sublimation pressure (291.3 K, Crystal): 0.00509 ± 0.00026 kPa
vapor or sublimation pressure (294.3 K, Crystal): 0.00721 ± 0.00037 kPa
vapor or sublimation pressure (297.3 K, Crystal): 0.00999 ± 0.0005 kPa
vapor or sublimation pressure (300.3 K, Crystal): 0.01323 ± 0.00066 kPa
vapor or sublimation pressure (302.2 K, Crystal): 0.01626 ± 0.00084 kPa
vapor or sublimation pressure (306 K, Crystal): 0.02395 ± 0.0012 kPa
vapor or sublimation pressure (308.3 K, Liquid): 0.0294 ± 0.0014 kPa
vapor or sublimation pressure (311.1 K, Liquid): 0.0361 ± 0.0018 kPa
vapor or sublimation pressure (314.2 K, Liquid): 0.0455 ± 0.0022 kPa
vapor or sublimation pressure (317.2 K, Liquid): 0.058 ± 0.0028 kPa
vapor or sublimation pressure (320.3 K, Liquid): 0.073 ± 0.0036 kPa
vapor or sublimation pressure (323.2 K, Liquid): 0.0905 ± 0.0044 kPa
vapor or sublimation pressure (326.2 K, Liquid): 0.1116 ± 0.0054 kPa
vapor or sublimation pressure (329.2 K, Liquid): 0.1366 ± 0.0066 kPa
vapor or sublimation pressure (332.2 K, Liquid): 0.1669 ± 0.008 kPa
vapor or sublimation pressure (335.2 K, Liquid): 0.2002 ± 0.0095 kPa

Oc1ccc(Cl)cc1 [4-chlorophenol]
vapor or sublimation pressure (283.2 K, Crystal): 0.00132 ± 7e-05 kPa
vapor or sublimation pressure (288.2 K, Crystal): 0.00236 ± 0.00012 kPa
vapor or sublimation pressure (291.2 K, Crystal): 0.00332 ± 0.00017 kPa
vapor or sublimation pressure (294.2 K, Crystal): 0.00459 ± 0.00023 kPa
vapor or sublimation pressure (297.2 K, Crystal): 0.00622 ± 0.00032 kPa
vapor or sublimation pressure (300.2 K, Crystal): 0.00839 ± 0.00043 kPa
vapor or sublimation pressure (303.2 K, Crystal): 0.01163 ± 0.00059 kPa
vapor or sublimation pressure (306.2 K, Crystal): 0.01571 ± 0.00079 kPa
vapor or sublimation pressure (309.2 K, Crystal): 0.02076 ± 0.001 kPa
vapor or sublimation pressure (311.2 K, Crystal): 0.02535 ± 0.0013 kPa
vapor or sublimation pressure (313.2 K, Crystal): 0.03092 ± 0.0015 kPa
vapor or sublimation pressure (318.2 K, Liquid): 0.0485 ± 0.0024 kPa
vapor or sublimation pressure (321.2 K, Liquid): 0.0615 ± 0.003 kPa
vapor or sublimation pressure (324.2 K, Liquid): 0.0754 ± 0.0036 kPa
vapor or sublimation pressure (327.2 K, Liquid): 0.0926 ± 0.0045 kPa
vapor or sublimation pressure (330.2 K, Liquid): 0.1141 ± 0.0055 kPa
vapor or sublimation pressure (333.2 K, Liquid): 0.1388 ± 0.0067 kPa
vapor or sublimation pressure (336.2 K, Liquid): 0.1699 ± 0.0082 kPa
vapor or sublimation pressure (339.2 K, Liquid): 0.2022 ± 0.0098 kPa
vapor or sublimation pressure (342.2 K, Liquid): 0.2534 ± 0.012 kPa
vapor or sublimation pressure (345.2 K, Liquid): 0.3058 ± 0.015 kPa
vapor or sublimation pressure (348.2 K, Liquid): 0.3684 ± 0.018 kPa
vapor or sublimation pressure (351.2 K, Liquid): 0.4409 ± 0.021 kPa

Clc1c(Cl)c(Cl)c(Cl)c(Cl)c1Cl [hexachlorobenzene]
vapor or sublimation pressure (358 K, Crystal): 0.00144 ± 7e-05 kPa
vapor or sublimation pressure (362.9 K, Crystal): 0.00216 ± 0.00011 kPa
vapor or sublimation pressure (368.9 K, Crystal): 0.00373 ± 0.00018 kPa
vapor or sublimation pressure (373.1 K, Crystal): 0.00519 ± 0.00026 kPa
vapor or sublimation pressure (377.8 K, Crystal): 0.00771 ± 0.00038 kPa
vapor or sublimation pressure (382.9 K, Crystal): 0.01123 ± 0.00055 kPa
vapor or sublimation pressure (389 K, Crystal): 0.01836 ± 0.00089 kPa
vapor or sublimation pressure (392.8 K, Crystal): 0.0238 ± 0.0011 kPa
vapor or sublimation pressure (397.9 K, Crystal): 0.03341 ± 0.0016 kPa
vapor or sublimation pressure (402.8 K, Crystal): 0.04901 ± 0.0024 kPa

Oc1c(Cl)c(Cl)c(Cl)c(Cl)c1Cl [pentachlorophenol]
vapor or sublimation pressure (348.1 K, Crystal): 0.00127 ± 7e-05 kPa
vapor or sublimation pressure (353.1 K, Crystal): 0.00206 ± 0.0001 kPa
vapor or sublimation pressure (358 K, Crystal): 0.00304 ± 0.00015 kPa
vapor or sublimation pressure (363 K, Crystal): 0.00483 ± 0.00024 kPa
vapor or sublimation pressure (367.8 K, Crystal): 0.00681 ± 0.00033 kPa
vapor or sublimation pressure (371.9 K, Crystal): 0.00975 ± 0.00048 kPa
vapor or sublimation pressure (378.1 K, Crystal): 0.01517 ± 0.00074 kPa
vapor or sublimation pressure (383 K, Crystal): 0.02172 ± 0.0011 kPa
vapor or sublimation pressure (388.9 K, Crystal): 0.03268 ± 0.0016 kPa
vapor or sublimation pressure (393.2 K, Crystal): 0.04374 ± 0.0021 kPa
vapor or sublimation pressure (397.8 K, Crystal): 0.06045 ± 0.0029 kPa
vapor or sublimation pressure (399.8 K, Crystal): 0.07143 ± 0.0035 kPa
vapor or sublimation pressure (403.2 K, Crystal): 0.09099 ± 0.0044 kPa
